Test results reported in PubChem BioAssay (NCI).
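1) Cells in 96-well plates. 2) Compound, 48 h, 5 concentrations. 3) Linear interpolation between surrounding doses. 4) Unreached endpoint = highest concentration. GI50 marks 50% less growth. The concentration for full growth arrest is given as TGI.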

What was measured:
Assay in all cases: DTP human tumour cell line panel, 48 h
HCT-15 colon = tested on: HCT-15 colon
SF-268 CNS = tested on: SF-268 CNS
HOP-92 NSCLC = tested on: HOP-92 NSCLC
RPMI-8226 leukemia = tested on: RPMI-8226 leukemia
UACC-257 melanoma = tested on: UACC-257 melanoma
OVCAR-8 ovarian = tested on: OVCAR-8 ovarian
NCI-H460 lung = tested on: NCI-H460 lung
T-47D breast = tested on: T-47D breast
SR leukemia = tested on: SR leukemia
LOX IMVI melanoma = tested on: LOX IMVI melanoma
CAKI-1 renal = tested on: CAKI-1 renal
MDA-N = tested on: MDA-N
MDA-MB-435 = tested on: MDA-MB-435
HS 578T breast = tested on: HS 578T breast

## Cc1ccc2c(=O)cc(-c3ccc(C)s3)[nH]c2n1
HCT-15 colon
  TGI: > 37.5 µM
SF-268 CNS
  TGI: > 74 µM
HOP-92 NSCLC
  TGI: > 100 µM
RPMI-8226 leukemia
  TGI: 2.57 µM
UACC-257 melanoma
  TGI: > 100 µM
OVCAR-8 ovarian
  TGI: > 28.3 µM
NCI-H460 lung
  TGI: > 100 µM
T-47D breast
  TGI: > 66.5 µM
SR leukemia
  TGI: > 100 µM
LOX IMVI melanoma
  TGI: > 42.9 µM
CAKI-1 renal
  TGI: > 100 µM

## C=C(C(=O)OC)[C@@H]1C[C@@H](OC(C)=O)C2=C[C@H](C[C@@]3(C)O[C@@H]3C3=CC(C)=C(O3)[C@H]1OC(C)=O)OC2=O
HCT-15 colon
  TGI: > 100 µM
SF-268 CNS
  TGI: > 100 µM
MDA-N
  TGI: 50.8 µM
RPMI-8226 leukemia
  TGI: 21.4 µM
UACC-257 melanoma
  TGI: 44.3 µM
OVCAR-8 ovarian
  TGI: > 100 µM
NCI-H460 lung
  TGI: 64.5 µM
T-47D breast
  TGI: 33.8 µM
SR leukemia
  TGI: 37.6 µM
LOX IMVI melanoma
  TGI: 41.8 µM
MDA-MB-435
  TGI: 37.9 µM
CAKI-1 renal
  TGI: 21.2 µM

## C/C(=N\NC(=O)c1ccccc1O)c1cccc(/C(C)=N/NC(=O)c2ccccc2O)n1.O=S(=O)([O-])[O-].[Fe+2]
HCT-15 colon
  TGI: > 100 µM
SF-268 CNS
  TGI: > 100 µM
HOP-92 NSCLC
  TGI: > 100 µM
UACC-257 melanoma
  GI50: > 100 µM
  TGI: > 100 µM
OVCAR-8 ovarian
  TGI: > 100 µM
NCI-H460 lung
  TGI: > 100 µM
SR leukemia
  TGI: > 100 µM
CAKI-1 renal
  GI50: > 100 µM
  TGI: > 100 µM

## CC(C)C1NC(=O)CC(c2ccccc2)N(N=O)C1c1ccccc1 (configuration not stated)
HCT-15 colon
  TGI: > 100 µM
SF-268 CNS
  TGI: > 100 µM
HOP-92 NSCLC
  TGI: > 100 µM
RPMI-8226 leukemia
  TGI: > 100 µM
UACC-257 melanoma
  TGI: > 100 µM
OVCAR-8 ovarian
  TGI: > 100 µM
NCI-H460 lung
  TGI: > 100 µM
LOX IMVI melanoma
  TGI: > 100 µM
CAKI-1 renal
  TGI: > 100 µM

## CC(=O)NC(NCCN)(c1ccccc1)c1ccccc1
HCT-15 colon
  TGI: > 100 µM
SF-268 CNS
  TGI: > 100 µM
HOP-92 NSCLC
  TGI: > 100 µM
RPMI-8226 leukemia
  TGI: > 100 µM
UACC-257 melanoma
  TGI: > 100 µM
OVCAR-8 ovarian
  TGI: > 100 µM
NCI-H460 lung
  TGI: > 100 µM
SR leukemia
  TGI: > 100 µM
LOX IMVI melanoma
  TGI: > 100 µM
HS 578T breast
  TGI: > 100 µM
MDA-MB-435
  TGI: > 100 µM

## CSCSCC(CO)NC(=O)/C(C)=C\c1c(C)[nH]c(=O)[nH]c1=O (configuration not stated)
HCT-15 colon
  TGI: > 250 µM
SF-268 CNS
  TGI: > 250 µM
HOP-92 NSCLC
  TGI: 23.9 µM
RPMI-8226 leukemia
  TGI: > 250 µM
UACC-257 melanoma
  TGI: > 158 µM
OVCAR-8 ovarian
  TGI: > 250 µM
NCI-H460 lung
  TGI: > 250 µM
LOX IMVI melanoma
  TGI: > 250 µM
CAKI-1 renal
  TGI: > 250 µM

## O=C(N/N=C/c1cc(Br)cc(Br)c1[O-])c1ccccc1O.O=C(N/N=C/c1cc(Br)cc(Br)c1[O-])c1ccccc1O.[Zn+2]
HCT-15 colon
  TGI: 14.4 µM
SF-268 CNS
  TGI: 17.5 µM
HOP-92 NSCLC
  TGI: 5.09 µM
UACC-257 melanoma
  TGI: 10.6 µM
OVCAR-8 ovarian
  TGI: 10.5 µM
NCI-H460 lung
  TGI: 9.26 µM
SR leukemia
  TGI: 4 µM
LOX IMVI melanoma
  TGI: 13.7 µM
CAKI-1 renal
  TGI: 7.29 µM

## CCCCCc1c(CCCC)c(=O)[nH]c2nc(NC(=O)CCCC)ccc12
HCT-15 colon
  TGI: > 100 µM
SF-268 CNS
  TGI: > 100 µM
MDA-N
  TGI: > 100 µM
HOP-92 NSCLC
  TGI: > 100 µM
RPMI-8226 leukemia
  TGI: > 100 µM
UACC-257 melanoma
  TGI: > 100 µM
OVCAR-8 ovarian
  TGI: > 100 µM
NCI-H460 lung
  TGI: > 100 µM
T-47D breast
  TGI: > 100 µM
SR leukemia
  TGI: > 100 µM
LOX IMVI melanoma
  TGI: > 100 µM
MDA-MB-435
  TGI: > 100 µM
CAKI-1 renal
  TGI: > 100 µM

## Cn1c2ccccc2c(=O)c2c(O)cc3c(c21)C=CC(C)(C)O3
HCT-15 colon
  TGI: > 25 µM
SF-268 CNS
  TGI: > 25 µM
HOP-92 NSCLC
  TGI: > 25 µM
RPMI-8226 leukemia
  TGI: > 25 µM
UACC-257 melanoma
  TGI: > 25 µM
NCI-H460 lung
  TGI: > 25 µM
LOX IMVI melanoma
  TGI: > 25 µM
CAKI-1 renal
  TGI: > 10.1 µM

## O=C(c1ccccc1)N1CCC(CC2(c3cc4ccccc4[nH]3)OCCO2)CC1
HCT-15 colon
  TGI: > 100 µM
SF-268 CNS
  TGI: > 100 µM
MDA-N
  TGI: 87.5 µM
HOP-92 NSCLC
  TGI: 93 µM
RPMI-8226 leukemia
  TGI: 6.36 µM
UACC-257 melanoma
  TGI: 51.9 µM
OVCAR-8 ovarian
  TGI: > 100 µM
NCI-H460 lung
  TGI: > 100 µM
T-47D breast
  TGI: > 100 µM
SR leukemia
  TGI: > 100 µM
LOX IMVI melanoma
  TGI: 35.6 µM
MDA-MB-435
  TGI: 51 µM
CAKI-1 renal
  TGI: > 100 µM

## CCOC(=O)c1c(NC(=S)Nc2ccc(Cl)cc2)sc2c1CCN(C)C2
HCT-15 colon
  TGI: > 100 µM
SF-268 CNS
  TGI: > 100 µM
MDA-N
  TGI: > 100 µM
RPMI-8226 leukemia
  TGI: > 100 µM
UACC-257 melanoma
  TGI: > 100 µM
OVCAR-8 ovarian
  TGI: > 100 µM
NCI-H460 lung
  TGI: > 100 µM
T-47D breast
  TGI: > 100 µM
HS 578T breast
  TGI: > 100 µM
CAKI-1 renal
  TGI: > 100 µM

## COc1nc(N)c(NC(C)=O)c(=O)n1C
HCT-15 colon
  TGI: > 100 µM
SF-268 CNS
  TGI: > 100 µM
HOP-92 NSCLC
  TGI: > 100 µM
RPMI-8226 leukemia
  TGI: > 100 µM
UACC-257 melanoma
  TGI: > 100 µM
OVCAR-8 ovarian
  TGI: > 100 µM
NCI-H460 lung
  TGI: > 100 µM
SR leukemia
  TGI: > 100 µM
LOX IMVI melanoma
  TGI: > 100 µM
CAKI-1 renal
  TGI: > 100 µM

## O=C(CSCC(=O)N/N=C\c1cccc([N+](=O)[O-])c1)N/N=C\c1cccc([N+](=O)[O-])c1
HCT-15 colon
  TGI: 67.8 µM
SF-268 CNS
  TGI: > 100 µM
HOP-92 NSCLC
  TGI: > 100 µM
RPMI-8226 leukemia
  TGI: > 100 µM
UACC-257 melanoma
  TGI: > 100 µM
OVCAR-8 ovarian
  TGI: > 100 µM
NCI-H460 lung
  TGI: > 100 µM
T-47D breast
  TGI: > 100 µM
SR leukemia
  TGI: > 100 µM
LOX IMVI melanoma
  TGI: > 100 µM
HS 578T breast
  TGI: > 100 µM
MDA-MB-435
  TGI: > 100 µM
CAKI-1 renal
  TGI: 64.4 µM

## OC(CN(CCCl)CCCl)C(O)C(O)C(O)CN(CCCl)CCCl (configuration not stated)
HCT-15 colon
  TGI: > 100 µM
SF-268 CNS
  TGI: > 100 µM
HOP-92 NSCLC
  TGI: > 100 µM
RPMI-8226 leukemia
  TGI: > 100 µM
UACC-257 melanoma
  TGI: > 100 µM
OVCAR-8 ovarian
  TGI: > 100 µM
NCI-H460 lung
  TGI: > 100 µM
T-47D breast
  TGI: > 100 µM
SR leukemia
  TGI: > 100 µM
LOX IMVI melanoma
  TGI: > 100 µM
HS 578T breast
  TGI: > 100 µM
MDA-MB-435
  TGI: > 100 µM
CAKI-1 renal
  TGI: > 100 µM

## Nc1ncnc2c1ncn2C1CCC(CP(=O)(O)O)C1 (configuration not stated)
HCT-15 colon
  TGI: > 100 µM
SF-268 CNS
  TGI: > 100 µM
MDA-N
  TGI: > 100 µM
RPMI-8226 leukemia
  TGI: > 100 µM
UACC-257 melanoma
  TGI: > 100 µM
OVCAR-8 ovarian
  TGI: > 100 µM
NCI-H460 lung
  TGI: > 100 µM
T-47D breast
  TGI: > 100 µM
LOX IMVI melanoma
  TGI: > 100 µM
HS 578T breast
  TGI: > 100 µM
MDA-MB-435
  TGI: > 100 µM
